{"source": "patent US7820078B2", "about": "“Layer configuration with improved stability to sunlight exposure” (Agfa Graphics, N.V., priority 2007, dated 2010)"}
{"settings": "cited from earlier work"}
{"smiles": "c1cn[nH]c1", "note": "[pyrazole]", "pKa": 2.53}
{"smiles": "c1ccc2cnccc2c1", "note": "[isoquinoline]", "pKa": 5.2}
{"smiles": "Cc1nc2ccccc2[nH]1", "note": "[2-methylbenzimidazole]", "pKa": 6.96}
{"smiles": "Sc1nnnn1-c1ccccc1", "note": "[1-phenyl-5-mercaptotetrazole]", "pKa": 2.30}
{"smiles": "CC(C)N", "note": "[isopropylamine]", "pKa": 10.63}
{"settings": "not given", "units": {"melting point": "°C"}}
{"smiles": "Oc1ccc2ccccc2c1O", "melting point": "101 to 103"}
